Values after ≈ are worked out from the molar mass of the structure shown. Where two headings read alike, the source gives them in different places.
Tests used:
Test in all cases: in vitro antibacterial MIC, agar plate dilution
Format in all cases: cell-based
[1] = test system: Staphylococcus epidermidis VGH 84-40; settings: VGH8440, 18 hours, 35° C., read-out: MIC
Summary of the method: (§1)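 Read-out is visible growth inhibition on Mueller-Hinton agar dilution plates incubated 18 hours at 35° C after inoculation of ~10^4 CFU (Steers device), with MIC reported in mcg/ml.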

[2] = test system: Morganella morganii VGH 84-11; settings: VGH8411, 18 hours, 35° C., read-out: MIC
Summary of the method: as §1

[3] = test system: Staphylococcus aureus Smith; settings: 35° C.
Summary of the method: as §1

Klebsiella pneumoniae AD = settings: Klebsiella pneumoniae, 18 h, 35° C., read-out: MIC
Summary of the method: as §1

[4] = test system: Enterobacter aerogenes VGH 84-36; settings: Klebsiella aerogenes, VGH8436, 18 hours, 35° C., read-out: MIC
Summary of the method: as §1

[5] = test system: Acinetobacter calcoaceticus MOR 84-43; settings: MOR8443, 18 hours, 35° C., read-out: MIC
Summary of the method: as §1

[6] = test system: Enterobacter cloacae K 84-10; settings: Enterobacter cloacae, K8410, 18 h, 35° C., read-out: MIC
Summary of the method: as §1

[7] = test system: Escherichia coli PRNT 311; settings: PRNT311, 18 hours, 35° C., read-out: MIC
Summary of the method: as §1

[8] = test system: Staphylococcus aureus ATTC 29213; settings: Staphylococcus aureus, ATTC29213, 18 h, 35° C., read-out: MIC
Summary of the method: as §1

[9] = test system: Serratia marcescens K 84-18; settings: Serratia marcescens, K8418, 18 h, 35° C., read-out: MIC
Summary of the method: as §1

Escherichia coli NAR 311 = settings: NAR311, 18 hours, 35° C., read-out: MIC
Summary of the method: as §1

[10] = test system: Staphylococcus aureus CMC 83-127; settings: Staphylococcus aureus, CMC83127, 18 h, 35° C., read-out: MIC
Summary of the method: as §1

[11] = test system: Serratia marcescens F 0-35; settings: Serratia marcescens, F035, 18 h, 35° C., read-out: MIC
Summary of the method: as §1

[12] = test system: Streptococcus faecalis ATTC 29212; settings: Enterococcus faecalis, ATTC29212, 18 hours, 35° C., read-out: MIC
Summary of the method: as §1

[13] = test system: Escherichia coli ATCC 25922; settings: Escherichia coli, ATCC25922, 18 h, 35° C., read-out: MIC
Summary of the method: as §1

[14] = test system: Staphylococcus aureus VGH 84-46; settings: 35° C.
Summary of the method: as §1

[15] = test system: Pseudomonas aeruginosa LL-1244; settings: Pseudomonas aeruginosa, LL1244, 18 h, 35° C., read-out: MIC
Summary of the method: as §1

[16] = test system: Morganella morganii CMC 84-37; settings: Morganella morganii, CMC8437, 18 h, 35° C., read-out: MIC
Summary of the method: as §1

[17] = test system: Enterobacter cloacae VGH 84-37; settings: Enterobacter cloacae, VGH8437, 18 h, 35° C., read-out: MIC
Summary of the method: as §1

[18] = test system: Staphylococcus Spp saprophiticus VGH 84-50; settings: 18 hours, 35° C., read-out: MIC
Summary of the method: as §1

[19] = test system: Klebsiella oxytoca MOR 84-28; settings: MOR8428, 18 hours, 35° C.
Summary of the method: as §1

[20] = test system: Klebsiella pneumoniae MOR 84-4; settings: Klebsiella pneumoniae, MOR844, 18 h, 35° C., read-out: MIC
Summary of the method: as §1

[21] = test system: Escherichia coli CMC 84-11; settings: Escherichia coli, CMC8411, 18 h, 35° C., read-out: MIC
Summary of the method: as §1

[22] = test system: Staphylococcus aureus VGH 84-45; settings: Staphylococcus aureus, VGH8445, 18 h, 35° C., read-out: MIC
Summary of the method: as §1

[23] = test system: Streptococcus faecalis VGH 84-65; settings: Enterococcus faecalis, VGH8465, 18 h, 35° C., read-out: MIC
Summary of the method: as §1

[24] = test system: Staphylococcus epidermidis CMC 83-135; settings: CMC83135, 18 hours, 35° C., read-out: MIC
Summary of the method: as §1

[25] = test system: Escherichia coli CMC 84-16; settings: Escherichia coli, CMC8416, 18 h, 35° C., read-out: MIC
Summary of the method: as §1

[26] = test system: Staphylococcus epidermidis IO 83-58; settings: IO8358, 18 hours, 35° C., read-out: MIC
Summary of the method: as §1

[27] = test system: Staphylococcus aureus CMC 83-128; settings: CMC83128, 18 hours, 35° C., read-out: MIC
Summary of the method: as §1

[28] = test system: Proteus rettgeri CMC 84-41; settings: Providencia rettgeri, CMC8441, 18 h, 35° C., read-out: MIC
Summary of the method: as §1

[29] = test system: Pseudomonas aeruginosa VGH 84-4; settings: Pseudomonas aeruginosa, VGH844, 18 h, 35° C., read-out: MIC
Summary of the method: as §1

[30] = Staphylococcus aureus, 18 h, read-out: MIC
[31] = Staphylococcus aureus, VGH8446, 18 h, read-out: MIC

MIC [1] | MIC [2] | MIC (Klebsiella pneumoniae AD) | MIC [4] | MIC [5] | MIC [6] | MIC [7] | MIC [8] | MIC [9] | MIC (Escherichia coli NAR 311) | MIC [10] | MIC [11] | MIC [12] | MIC [13] | MIC [15] | MIC [16] | MIC [17] | MIC [18] | MIC [20] | MIC [21] | SMILES | other results
0.06 µg/mL (≈ 0.133 µM) | 1 µg/mL (≈ 2.22 µM) | 0.25 µg/mL (≈ 0.554 µM) | 1 µg/mL (≈ 2.22 µM) | 0.12 µg/mL (≈ 0.266 µM) | 0.25 µg/mL (≈ 0.554 µM) | 0.25 µg/mL (≈ 0.554 µM) | 0.06 µg/mL (≈ 0.133 µM) | 1 µg/mL (≈ 2.22 µM) | 2 µg/mL (≈ 4.43 µM) | 0.03 µg/mL (≈ 0.0665 µM) | 2 µg/mL (≈ 4.43 µM) | 0.5 µg/mL (≈ 1.11 µM) | 0.12 µg/mL (≈ 0.266 µM) | 4 µg/mL (≈ 8.86 µM) | 1 µg/mL (≈ 2.22 µM) | 0.25 µg/mL (≈ 0.554 µM) | 0.25 µg/mL (≈ 0.554 µM) | 0.5 µg/mL (≈ 1.11 µM) | 0.12 µg/mL (≈ 0.266 µM) | O=C(O)c1cn(-c2ccc(F)cc2)c2cc(N3CCNC(c4ccco4)C3)c(F)cc2c1=O (stereo not drawn) [Example 67, 6-Fluoro-1-(4-fluorophenyl)-7-[3-(2-furanyl)-1-piperazinyl]-1,4-dihydro-4-oxo-3-quinolinecarboxylic acid] | MIC [3, 30]: 0.03 µg/mL (≈ 0.0665 µM); MIC [14, 31]: 0.03 µg/mL (≈ 0.0665 µM); MIC [19]: 0.12 µg/mL (≈ 0.266 µM); MIC [22]: 0.03 µg/mL (≈ 0.0665 µM); MIC [23]: 1 µg/mL (≈ 2.22 µM); MIC [24]: 0.06 µg/mL (≈ 0.133 µM); MIC [25]: 0.12 µg/mL (≈ 0.266 µM); MIC [26]: 0.06 µg/mL (≈ 0.133 µM); MIC [27]: 0.06 µg/mL (≈ 0.133 µM); MIC [28]: 1 µg/mL (≈ 2.22 µM)
0.25 µg/mL (≈ 0.677 µM) | 0.12 µg/mL (≈ 0.325 µM) | 0.06 µg/mL (≈ 0.162 µM) | 0.12 µg/mL (≈ 0.325 µM) | 0.5 µg/mL (≈ 1.35 µM) | 0.06 µg/mL (≈ 0.162 µM) | 0.06 µg/mL (≈ 0.162 µM) | 0.25 µg/mL (≈ 0.677 µM) | 0.25 µg/mL (≈ 0.677 µM) | 1 µg/mL (≈ 2.71 µM) | 0.06 µg/mL (≈ 0.162 µM) | 0.5 µg/mL (≈ 1.35 µM) | 4 µg/mL (≈ 10.8 µM) | 0.03 µg/mL (≈ 0.0812 µM) | 8 µg/mL (≈ 21.7 µM) | 0.06 µg/mL (≈ 0.162 µM) | 0.06 µg/mL (≈ 0.162 µM) | 1 µg/mL (≈ 2.71 µM) | 0.06 µg/mL (≈ 0.162 µM) | 0.03 µg/mL (≈ 0.0812 µM) | CCn1cc(C(=O)O)c(=O)c2cc(F)c(N3CCNC(CF)C3)c(F)c21 (single isomer, unassigned; (-)) [Example 64, (-)-N-Ethy6,8-difluoro-7-[3-(fluoromethyl)-1-piperazinyl]-1,4-dihydro-4-oxo-3-quinolinecarboxylic acid] | MIC ([3]; 18 hours): 0.12 µg/mL (≈ 0.325 µM); MIC [29]: 2 µg/mL (≈ 5.42 µM); MIC ([14]; 18 hours): 0.12 µg/mL (≈ 0.325 µM); MIC [22]: 0.12 µg/mL (≈ 0.325 µM); MIC [23]: 4 µg/mL (≈ 10.8 µM); MIC [24]: 0.25 µg/mL (≈ 0.677 µM); MIC [25]: 0.03 µg/mL (≈ 0.0812 µM); MIC [26]: 0.25 µg/mL (≈ 0.677 µM); MIC [27]: 0.25 µg/mL (≈ 0.677 µM); MIC [28]: 0.25 µg/mL (≈ 0.677 µM)
0.06 µg/mL (≈ 0.14 µM) | 1 µg/mL (≈ 2.34 µM) | 0.25 µg/mL (≈ 0.585 µM) | 2 µg/mL (≈ 4.68 µM) | 8 µg/mL (≈ 18.7 µM) | 0.12 µg/mL (≈ 0.281 µM) | 0.5 µg/mL (≈ 1.17 µM) | 0.25 µg/mL (≈ 0.585 µM) | 2 µg/mL (≈ 4.68 µM) | 0.5 µg/mL (≈ 1.17 µM) | 0.03 µg/mL (≈ 0.0702 µM) | 2 µg/mL (≈ 4.68 µM) | 0.5 µg/mL (≈ 1.17 µM) | 0.12 µg/mL (≈ 0.281 µM) | 16 µg/mL (≈ 37.4 µM) | 0.5 µg/mL (≈ 1.17 µM) | 0.25 µg/mL (≈ 0.585 µM) | 0.06 µg/mL (≈ 0.14 µM) | 0.5 µg/mL (≈ 1.17 µM) | 0.12 µg/mL (≈ 0.281 µM) | CN1CCN(c2cc3c(cc2F)c(=O)c(C(=O)O)cn3C2CC2)CC1c1ccsc1 (stereo not drawn) [Example 66, 1-Cyclopropyl-6-fluoro-1,4-dihydro-4-oxo-7-[4-methyl-3-(3-thienyl)-1-piperazinyl]-3-quinolinecarboxylic acid] | MIC [3, 30]: 0.06 µg/mL (≈ 0.14 µM); MIC [14, 31]: 0.06 µg/mL (≈ 0.14 µM); MIC [19]: 0.12 µg/mL (≈ 0.281 µM); MIC [22]: 0.03 µg/mL (≈ 0.0702 µM); MIC [23]: 0.25 µg/mL (≈ 0.585 µM); MIC [24]: 0.06 µg/mL (≈ 0.14 µM); MIC [25]: 0.06 µg/mL (≈ 0.14 µM); MIC [26]: 0.06 µg/mL (≈ 0.14 µM); MIC [27]: 0.03 µg/mL (≈ 0.0702 µM); MIC [28]: 1 µg/mL (≈ 2.34 µM)

— US5210193A, “Piperazine derivatives” (American Cyanamid Company, priority 1990, dated 1993)
